The values that follow come from patent publication US20030195242A1, “Use of Cox-2 inhibitors to prevent recurrences of herpesvirus infections” (priority 2002, published 2003).

What all share (assay type): in vivo, BALB/c mice
In experiment [1] the test system is McKrae strain of HSV-1. As to the kind of experiment: Heat-stress reactivation of latent HSV-1 in mice: infectious virus on the ocular surface (celecoxib). The note with it: not stressed. An excerpt:
(§1) To test the effect of a selective COX-2 inhibitor on recurrence of HSV, female BALB/c mice (The Jackson Laboratory, Bar Harbor, Me.) at 4 weeks of age were used. The strain of HSV and the method of propagation were as described in Example 1.
(§2) The mice were infected by the topical ocular route, and the establishment of a corneal infection was documented by slit lamp examination and ocular swabs on day 3 after infection. Only animals which were successfully infected were retained for use in these experiments. Thirty days after infection, groups of 15 latently infected and 15 uninfected mice were treated with the COX 2 inhibitor, celecoxib (G. D. Searle & Co., Skokie, Ill.). The dose of celecoxib that would inhibit viral reactivation was determined in a preliminary experiment in which groups of mice were injected intraperitoneally with 0.1, 0.5, 1.0, and 5.0 mg of celecoxib four times daily. The mice were treated one day before heat stress and the day of the heat stress. […] This dosage was used in all subsequent experiments.
(§3) Two days prior to hyperthermic stress, uninfected mice and latently infected mice were treated four times daily with celecoxib at a concentration of 0.5 mg per treatment. […] Units of Infectious virus were recorded as units of cytopathic effect over a period of seven days. […] The units of cytopathic effect were recorded over a seven day incubation period. […]

Experiment [2] deals with McKrae strain of HSV-1. As to the kind of experiment: Heat-stress reactivation of latent HSV-1 in mice: infectious virus in the trigeminal ganglia (celecoxib). The note with it: not stressed.
Source text: as §1, §2, §3

In experiment [3] the test system is McKrae strain of HSV-1. Put plainly: Preliminary dose-finding experiment for inhibition of viral reactivation by celecoxib. The note with it: IP four times daily; 0.1, 0.5, 1.0 and 5.0 mg tested; one day before and day of heat stress. Here is the method: as §2
Experiment [4] deals with McKrae strain of HSV-1. Put plainly: Heat-stress reactivation of latent HSV-1 in mice: infectious virus on ocular surface swabs (ASA). Here is the method:
The McKrae strain of HSV-1 was propagated in Vero cells (ATCC No. CCL-81, American Type Culture Collection, Manassass, Va.), titered by viral plaque assay, and stored at −70° C. until used to infect animals.
(§4) Ocular swabs were immersed in 0.2 ml of complete tissue culture medium consisting of RPMI-1640, 10% fetal bovine serum (FBS), and an antibiotic-antimycotic mixture (Life Technologies, Grand Island, N.Y.). The swabs in culture medium were stored at 4° C. until testing by plaque assay. The determination of infectious virus in the cornea and in the trigeminal ganglia of animals were performed in a similar manner. Pairs of corneas and ganglia from individual mice were placed in separate tubes in 0.2 ml of complete medium, homogenized, clarified by centrifugation at 14,000×g for 5 minutes and the supernatant tested for infectious virus on Vero cells.
(§5) Male BALB/c strain mice (The Jackson Laboratory, Bar Harbor, Me.) were infected at 5 weeks of age by topical application of 5×10^5 plaque forming units of the McKrae strain HSV-1 following superficial scratching of the cornea. Documentation of the success of viral infection was determined by culturing ocular swabs taken on days 3 and 5 after infection. Animals without infectious virus on both days 3 and 5 in both eyes were excluded from use in these experiments. Thirty days after infection the eyes were swabbed to establish that infectious virus was no longer present on the ocular surface. Groups of uninfected age and sex matched mice were used as control animals in this study.
(§6) To test the effect of acetylsalicylic acid (ASA) on reactivation of HSV induced by heat stress, two sets of experiments were performed. In one set, groups of mice with latent HSV were immersed in 43° C. water up to their necks for 10 minutes. Following the hyperthermic stress, the animals were dried and given an intraperitoneal (IP) injection of 0.1 mg of ASA (Sigma Chemical Co., St. Louis, Mo.) suspended in 0.1 ml saline. At 8 and 16 hours after hyperthermia, the animals were again treated with ASA. Control mice were given IP injections of saline on the same schedule. At 24 hr after hyperthermic stress, the eyes were swabbed, the mice were sacrificed, and the corneas and trigeminal ganglia analyzed for infectious virus and viral DNA.
(§7) In a second experiment, groups of mice were treated IP for 3 days prior to hyperthermic stress at 8 hr intervals on each of the 3 days. The animals were then heat stressed, treated immediately after stress with ASA, and treated at 8 and 16 hr after hyperthermic stress. Control mice were given IP injections of saline on the same schedule. Two additional groups of mice were prophylactically treated by oral administration of 0.1 mg ASA or saline on the same dose schedule. In each experiment, animals were subdivided into those which were hyperthermically stressed and those which were not stressed. As above, the eyes of these animals were swabbed at 24 hr after stress and then sacrificed for analysis of infectious virus and viral DNA in their corneas and trigeminal ganglia.
(§8) Control mice for each of these experiments included animals which were latent for HSV-1 but which were not heat stressed. Subsets of this control group included animals placebo-treated and animals treated with ASA. Two additional control groups of animals were those which were not latent for HSV-1, but which were either treated with placebo or ASA on the schedules outlined above.

In experiment [5] the test system is McKrae strain of HSV-1. Put plainly: Heat-stress reactivation of latent HSV-1 in mice: infectious virus in cornea and trigeminal ganglia homogenates (ASA). As for the experimental part: as §4, §5, §6, §7, §8
In experiment [6] the test system is McKrae strain of HSV-1. Put plainly: Quantitation of viral DNA by PCR in cornea and trigeminal ganglion of latently infected mice (ASA). The note with it: pooled from six mice.
Source text: Quantitation of viral DNA in tissue homogenates was made using the polymerase chain reaction (PCR), as previously reported. See B. M. Gebhardt et al., “9-(4-hydroxybutyl)-N^2-phenylguanine (HBPG), a thymidine kinase inhibitor, suppresses herpes virus reactivation in mice,” Antiviral Res., vol. 30, pp. 87-94 (1996); and J. M. Hill et al., “Quantitative analysis of polymerase chain reaction products by dot blot,” Analyt. Biochem., vol. 235, pp. 44-48 (1996). In brief, the procedure involves comparing DNA extracted from experimental and control tissue samples containing viral DNA, and performing serial dilutions with DNA from homologous tissue homogenates of uninfected animals. Using a log dilution series and previously determined quantities of viral DNA, it is possible to obtain a series of curves which permit the sensitive and reproducible determination of viral DNA in experimental samples. The sensitivity of this procedure permits the determination of differences of 100 viral genome equivalents per sample. In each experimental series, standard curves were conducted along with the analyses of the tissue homogenates from experimental (drug treated) and control (placebo treated) mice.
as §6, §7

Setting [7] is: 0.5 mg celecoxib four times daily IP for two days.
[8] abbreviates: 0.5 mg celecoxib four times daily orally for two days.
Setting [9] is: Experiment 1, heat stressed, ASA 0.1 mg IP after stress and at 8 and 16 h, swabs 24 hrs after heat stress.
[10] abbreviates: Experiment 1, latent mice not stressed, ASA-treated.
Where [11] appears, read: Experiment 2, heat stressed, ASA 0.1 mg IP after stress and at 8 and 16 h, swabs 24 hrs after heat stress.
The mark [12] stands for this setting: Experiment 2, latent mice not stressed, ASA-treated.
The mark [13] stands for this setting: Experiment 3, heat stressed, ASA 0.1 mg IP after stress and at 8 and 16 h, swabs 24 hrs after heat stress.
[14] abbreviates: Experiment 3, latent mice not stressed, ASA-treated.
Setting [15] is: Cornea, ASA from time of hyperthermic stress, 24 h after stress.
Where [16] appears, read: Prophylactic ASA IP, 3 days prior to stress, cornea, 24 hrs after stress.
Setting [17] is: Prophylactic ASA IP, 3 days prior to stress, trigeminal ganglia, 24 hrs after stress.
[18] abbreviates: Prophylactic ASA oral gavage 0.1 mg, 3 days prior to stress, cornea, 24 hrs after stress.
Where [19] appears, read: Prophylactic ASA oral gavage 0.1 mg, 3 days prior to stress, trigeminal ganglia, 24 hrs after stress.
[20] abbreviates: Trigeminal ganglia, ASA from time of hyperthermic stress, 24 h after stress.

Bounds are passed on as bounds.

Consider `Cc1ccc(-c2cc(C(F)(F)F)nn2-c2ccc(S(N)(=O)=O)cc2)cc1` [celecoxib], for which the results for the “Infectious Virus on the Ocular Surface (mice positive/total)” value in experiment [1] (setting [7]) and in experiment [1] (setting [8]) were 0/12 and 0/14, respectively. The “Infectious Virus in the Trigeminal Ganglia (mice positive/total)” value in experiment [2] (setting [7]) is 0/12; in experiment [2] (setting [8]), 0/10. Moreover, the “Most effective dose in preventing viral recurrence” value in experiment [3] came out at 0.5 mg.
Regarding `CC(=O)Oc1ccccc1C(=O)O` [ASA, acetylsalicylic acid], the “Levels of infectious virus in ocular tear film compared to placebo-treated mice” value in experiment [4] (ASA IP or orally for three days prior to hyperthermic stimulus, data not shown) is given as “significantly lower”. Further, the “Infectious Virus (no. positive/total), ocular surface swabs” value in experiment [4] (setting [9]) is given as 2/12; in experiment [4] (setting [10]), 0/10; in experiment [4] (setting [11]) it was 3/12; in experiment [4] (setting [12]), 0/8; in experiment [4] (setting [13]), 3/12; in experiment [4] (setting [14]), 0/10. For the same compound, the “Percent of ocular swab cultures which contained virus” value in experiment [4] (setting [9]) was “(17%)”; in experiment [4] (setting [10]), “(0%)”; in experiment [4] (setting [11]), “(25%)”; in experiment [4] (setting [12]), “(0%)”; in experiment [4] (setting [13]), “(25%)”; in experiment [4] (setting [14]) it was “(0%)”. In addition, the “Infectious Virus (no. positive/total), cornea homogenates” value in experiment [5] (setting [15]) is 5/36; in experiment [5] (setting [16]) it was 2/10; in experiment [5] (setting [18]), 2/14. For the same compound, the “Percent of cornea homogenate cultures which contained virus” value in experiment [5] (setting [15]) is “(14%)”; in experiment [5] (setting [16]), 20%; in experiment [5] (setting [18]), 14%. Also, the “Infectious Virus (no. positive/total), trigeminal ganglia homogenates” value in experiment [5] (setting [17]) was 3/10; in experiment [5] (setting [19]), 4/14; in experiment [5] (setting [20]), 8/36. Besides, the “Percent of trigeminal ganglia homogenate cultures which contained virus” value in experiment [5] (setting [17]) is given as 30%; in experiment [5] (setting [19]), 29%; in experiment [5] (setting [20]), “(22%)”. Besides, the “Viral DNA (genome equivalents)” value is given as 4.9 × 10^4 genome equivalents in experiment [6] (ASA prophylaxis prior to heat stress, heat stressed, TG); 0.4 × 10^4 genome equivalents in experiment [6] (ASA prophylaxis prior to heat stress, heat stressed, cornea); 2.3 × 10^2 genome equivalents in experiment [6] (ASA prophylaxis schedule, not stressed, TG); <1 × 10^2 genome equivalents in experiment [6] (ASA prophylaxis schedule, not stressed, cornea); 2.1 × 10^4 genome equivalents in experiment [6] (Heat stressed, TG, ASA from time of stress); 0.9 × 10^3 genome equivalents in experiment [6] (Heat stressed, cornea, ASA from time of stress). In addition, the “Viral DNA (genome equivalents)” value is recorded as 1.5 × 10^2 genome equivalents in experiment [6] (Not stressed, TG, ASA-treated) and <1 × 10^2 genome equivalents in experiment [6] (Not stressed, cornea, ASA-treated).
